Experimental data: ChEMBL document CHEMBL5614460, “Discovery of novel substituted pyridine carboxamide derivatives as potent allosteric SHP2 inhibitors” (Eur J Med Chem, 2024)
One block for each compound: values may come before it. Active and inactive are the calls of the source. No cut-off for these calls is given here.

Tests used:
[1] = Toxicity in BALB/C nude mouse xenografted with human […] cells assessed as change in body weight at 30 mg/kg, IG administered once daily for 18 days; type: organism-based; details: in vivo, po, 432 h, time 18 day
[2] = Toxicity in BALB/C nude mouse xenografted with human […] cells assessed as animal death at 30 mg/kg, IG administered once daily for 18 days; type: organism-based; details: in vivo, po, 432 h, time 18 day
MV4-11 [3] = assay: Antitumor activity against human MV4-11 cells xenografted in BALB/C nude mouse model assessed as tumor growth inhibition at 30 mg/kg, IG administered once daily for 18 days relative to control; type: functional; details: MV4-11, po, 432 h, time 18 day, read-out: TGI
MV4-11 [4] = assay: Antiproliferative activity against human MV4-11 cells assessed as inhibition of cell proliferation incubated for 72 hrs by CCK-8 assay; type: functional, cell-based
[5] = target: T1, Tyrosine-protein phosphatase non-receptor type 11 (Homo sapiens, UniProt Q06124); assay: Inhibition of SHP2 (unknown origin)
T1 sequence (Q06124 whole entry): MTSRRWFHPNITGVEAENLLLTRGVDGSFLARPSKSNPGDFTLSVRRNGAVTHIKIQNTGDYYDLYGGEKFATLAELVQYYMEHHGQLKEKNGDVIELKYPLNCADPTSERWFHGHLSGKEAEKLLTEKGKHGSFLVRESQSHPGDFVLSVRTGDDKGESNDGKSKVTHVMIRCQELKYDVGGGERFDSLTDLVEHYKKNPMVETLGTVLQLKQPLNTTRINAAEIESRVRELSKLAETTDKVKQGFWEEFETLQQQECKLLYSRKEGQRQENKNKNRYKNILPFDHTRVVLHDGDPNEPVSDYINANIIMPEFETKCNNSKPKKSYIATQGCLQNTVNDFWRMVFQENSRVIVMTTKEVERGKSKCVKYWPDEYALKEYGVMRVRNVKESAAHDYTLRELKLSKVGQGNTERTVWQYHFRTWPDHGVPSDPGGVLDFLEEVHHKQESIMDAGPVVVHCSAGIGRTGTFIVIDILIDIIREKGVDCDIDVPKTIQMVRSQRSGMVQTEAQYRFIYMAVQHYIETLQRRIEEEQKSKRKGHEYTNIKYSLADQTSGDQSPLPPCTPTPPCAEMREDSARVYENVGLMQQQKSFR

MV4-11 [6] = assay: Antitumor activity against human MV4-11 cells xenografted in BALB/C nude mouse model assessed as appearance of shrunken nuclei in tumor at 10 to 30 mg/kg, IG administered once a day for 18 days by H and E staining based analysis; type: functional, organism-based; details: dose 10-30 mg/kg, time 18.0 day
MV4-11 [7] = assay: Antitumor immunity against human MV4-11 cells xenografted in BALB/C nude mouse model assessed as suppression of CD206+/Ly6C+ M2-like tumor associated macrophages in lymphocytes at 10 to 30 mg/kg, IG administered once daily for 18 days by flow cytometric analysis; type: functional, organism-based; details: dose 10-30 mg/kg, time 18.0 day
[8] = Half life in male Sprague-Dawley rat at 2 mg/kg, iv measured for 24 hrs by LC/MS analysis; type: ADME, organism-based; details: in vivo
MV4-11 [9] = assay: Antitumor activity against human MV4-11 cells xenografted in BALB/C nude mouse model assessed as suppression of tumor growth administered intragastrically as once daily dose for 18 days; type: functional, cell-based; details: dose 10-30 mg/kg, route ig, time 18.0 day
[10] = Apparent volume of distribution during terminal phase in male Sprague-Dawley rat at 2 mg/kg, iv measured for 24 hrs by LC/MS analysis; type: ADME, organism-based; details: in vivo
MV4-11 [11] = assay: Antitumor activity against human MV4-11 cells xenografted in BALB/C nude mouse model assessed as tumor growth inhibition at 10 mg/kg, IG administered once daily for 18 days relative to control; type: functional; details: MV4-11, po, 432 h, time 18 day, read-out: TGI
[12] = Cmax in male Sprague-Dawley rat at 10 mg/kg, po measured for 24 hrs by LC/MS analysis; type: ADME, organism-based; details: in vivo
[13] = target: T2, Tyrosine-protein phosphatase non-receptor type 11 (Homo sapiens) (UniProt Q06124); assay: Inhibition of SHP2 in human MV4-11 cells assessed as downregulation of phosphorylated Akt level incubated for 12 hrs by Western blot analysis; type: cell-based; details: dose 0-5 µM
T2 sequence (whole entry): T1 sequence (Q06124 whole entry)

MV4-11 [14] = assay: Antitumor immunity against human MV4-11 cells xenografted in BALB/C nude mouse model assessed as reduction of IL-10 expression level in tumor at 30 mg/kg, IG administered once daily for 18 days by ELISA; type: functional, organism-based; details: time 18.0 day
[15] = target: Tyrosine-protein phosphatase non-receptor type 6 (Homo sapiens) (UniProt P29350); assay: Inhibition of SHP1 (unknown origin) using DiFMUP as substrate at 10 uM preincubated with compound for 60 mins followed by substrate addition and measured after 30 mins by fluorescence based microplate reader analysis relative to control; details: time 90.0 min
Tyrosine-protein phosphatase non-receptor type 6 (Homo sapiens), sequence (P29350 whole entry): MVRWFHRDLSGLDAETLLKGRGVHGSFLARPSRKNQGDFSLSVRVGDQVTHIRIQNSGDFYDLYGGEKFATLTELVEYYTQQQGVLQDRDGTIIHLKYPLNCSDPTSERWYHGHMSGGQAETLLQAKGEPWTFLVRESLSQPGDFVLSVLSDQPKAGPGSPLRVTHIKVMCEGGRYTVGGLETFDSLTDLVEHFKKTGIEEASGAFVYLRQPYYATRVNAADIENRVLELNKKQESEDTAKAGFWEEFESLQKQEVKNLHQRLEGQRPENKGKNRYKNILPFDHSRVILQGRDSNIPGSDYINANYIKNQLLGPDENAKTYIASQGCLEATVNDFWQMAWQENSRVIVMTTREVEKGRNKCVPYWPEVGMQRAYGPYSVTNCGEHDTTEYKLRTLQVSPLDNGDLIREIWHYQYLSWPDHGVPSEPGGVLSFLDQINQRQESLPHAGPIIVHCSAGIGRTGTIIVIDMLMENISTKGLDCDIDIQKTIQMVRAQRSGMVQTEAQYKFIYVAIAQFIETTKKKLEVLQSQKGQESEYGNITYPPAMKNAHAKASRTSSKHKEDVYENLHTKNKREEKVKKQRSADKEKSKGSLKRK

[16] = AUC (0 to infinity) in male Sprague-Dawley rat at 2 mg/kg, iv measured for 24 hrs by LC/MS analysis; type: ADME, organism-based; details: in vivo
MV4-11 [17] = assay: Antitumor activity against human MV4-11 cells xenografted in BALB/C nude mouse model assessed as appearance of pyknotic nuclei in tumor at 10 to 30 mg/kg, IG administered once a day for 18 days by H and E staining based analysis; type: functional, organism-based; details: dose 10-30 mg/kg, time 18.0 day
[18] = Toxicity in BALB/C nude mouse xenografted with human […] cells assessed as animal death at 10 to 30 mg/kg, IG administered once daily for 18 days; type: organism-based; details: in vivo, po, 432 h, dose 10-30 mg/kg, time 18 day
[19] = Half life in male Sprague-Dawley rat at 10 mg/kg, po measured for 24 hrs by LC/MS analysis; type: ADME, organism-based; details: in vivo
[20] = target: T2, Tyrosine-protein phosphatase non-receptor type 11 (Homo sapiens); assay: Inhibition of SHP2 in human MV4-11 cells assessed as downregulation of phosphorylated ERK level incubated for 12 hrs by Western blot analysis; type: cell-based; details: dose 0-5 µM
MV4-11 [21] = assay: Potency index, ratio of TNO155 IC50 to test compound IC50 for antiproliferative activity against human MV4-11 cells assessed as inhibition of cell proliferation incubated for 72 hrs by CCK-8 assay; type: functional
MV4-11 [22] = assay: Antitumor activity against human MV4-11 cells xenografted in BALB/C nude mouse model assessed as reduction in Ki67 expression administered intragastrically as once daily dose for 18 days by immunohistochemistry staining based analysis; type: functional, cell-based; details: dose 10-30 mg/kg, route ig, time 18.0 day
[23] = AUC (0 to infinity) in male Sprague-Dawley rat at 10 mg/kg, po measured for 24 hrs by LC/MS analysis; type: ADME, organism-based; details: in vivo
[24] = target: T2, Tyrosine-protein phosphatase non-receptor type 11 (Homo sapiens); assay: Inhibition of SHP2 PTP domain (unknown origin) using DiFMUP as substrate at 10 uM preincubated with compound for 60 mins followed by substrate addition and measured after 30 mins by fluorescence based microplate reader analysis relative to control; details: time 90.0 min
[25] = target: T3, Tyrosine-protein phosphatase non-receptor type 1 (Homo sapiens) (UniProt P18031); assay: Inhibition of PTP1B (unknown origin) using DiFMUP as substrate at 10 uM preincubated with compound for 60 mins followed by substrate addition and measured after 30 mins by fluorescence based microplate reader analysis relative to control; details: time 90.0 min
T3 sequence (whole entry): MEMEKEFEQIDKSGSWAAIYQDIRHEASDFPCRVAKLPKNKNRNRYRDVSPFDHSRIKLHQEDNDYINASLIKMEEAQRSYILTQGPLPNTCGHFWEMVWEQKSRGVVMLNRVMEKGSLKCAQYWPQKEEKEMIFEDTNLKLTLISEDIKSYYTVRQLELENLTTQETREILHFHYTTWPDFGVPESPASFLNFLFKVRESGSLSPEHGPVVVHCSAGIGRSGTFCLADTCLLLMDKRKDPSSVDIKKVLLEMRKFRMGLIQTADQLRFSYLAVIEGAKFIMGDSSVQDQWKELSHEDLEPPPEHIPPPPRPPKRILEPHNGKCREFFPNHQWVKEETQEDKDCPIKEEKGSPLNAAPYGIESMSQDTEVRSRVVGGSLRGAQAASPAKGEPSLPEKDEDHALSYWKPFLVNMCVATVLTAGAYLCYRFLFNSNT

[26] = Toxicity in BALB/C nude mouse xenografted with human […] cells assessed as change in body weight at 10 to 30 mg/kg, IG administered once daily for 18 days; type: organism-based; details: in vivo, po, 432 h, dose 10-30 mg/kg, time 18 day
MV4-11 [27] = assay: Antitumor immunity against human MV4-11 cells xenografted in BALB/C nude mouse model assessed as reduction in F4/80+/CD206+ M2-like tumor associated macrophages at 10 to 30 mg/kg, IG administered once daily for 18 days by immunofluorescence staining […]; type: functional, organism-based; details: dose 10-30 mg/kg, time 18.0 day
[28] = Tmax in male Sprague-Dawley rat at 10 mg/kg, po measured for 24 hrs by LC/MS analysis; type: ADME, organism-based; details: in vivo
[29] = Cmax in male Sprague-Dawley rat at 2 mg/kg, iv measured for 24 hrs by LC/MS analysis; type: ADME, organism-based; details: in vivo
[30] = Oral bioavailability in male Sprague-Dawley rat at 10 mg/kg measured for 24 hrs by LC/MS analysis; type: ADME, organism-based; details: in vivo
[31] = target: T1, Tyrosine-protein phosphatase non-receptor type 11; assay: Allosteric inhibition of N-terminal His-tagged human recombinant SHP2 extracted from Escherichia coli using DiFMUP as substrate preincubated with compound for 60 mins followed by substrate addition and measured after 30 mins by fluorescence based microplate reader analysis
[32] = Tmax in male Sprague-Dawley rat at 2 mg/kg, iv measured for 24 hrs by LC/MS analysis; type: ADME, organism-based; details: in vivo
[33] = Apparent clearance during terminal phase in male Sprague-Dawley rat at 2 mg/kg, iv measured for 24 hrs by LC/MS analysis; type: ADME, organism-based; details: in vivo

Structure (SMILES): C[C@@H]1OCC2(CCN(c3cnc(Sc4ccnc(N)c4Cl)c(N)n3)CC2)[C@@H]1N [BATOPROTAFIB]
Activity [1]: Non-Toxic | Activity [2]: Non-Toxic | inhibition in vivo at 30 mg/kg (MV4-11 [3]): 70.8% | IC50 (MV4-11 [4]; mv4-11): 39 nM

IC50 [5]: 1.5 nM
Structure (SMILES): Cc1nc(N2CCC3(CC2)CO[C@@H](C)[C@H]3N)c(CO)nc1Sc1ccnc(N)c1Cl [VOCIPROTAFIB]

Structure (SMILES): N[C@@H]1c2ccccc2CC12CCN(c1cnc(Sc3cccc(NC(=O)c4cnccc4O)c3Cl)cn1)CC2
Activity (MV4-11 [6]): Active | Activity (MV4-11 [7]): Active | half-life [8]: 4.26 h | Activity (MV4-11 [9]): Dose-Dependent Effect | Vz/F [10]: 11.04 L/kg | inhibition in vivo at 10 mg/kg (MV4-11 [11]): 45.9% | Cmax [12]: 70.1 ng/mL | inhibition [13]: Dose-Dependent Effect | Activity (MV4-11 [14]): Active | inhibition [15]: 29.3% | AUC(0-inf) [16]: 1260 ng·h/mL | inhibition in vivo at 30 mg/kg (MV4-11 [3]): 69.5% | Activity (MV4-11 [17]): Active | Activity [18]: Non-Toxic | half-life [19]: 4.66 h | inhibition [20]: Dose-Dependent Effect | Ratio IC50 (MV4-11 [21]): ~11 | Activity (MV4-11 [22]): Dose-Dependent Effect | AUC(0-inf) [23]: 762 ng·h/mL | IC50 (MV4-11 [4]; Homo sapiens, MV4-11, 72 h): 3.5 nM | inhibition [24]: 13.2% | inhibition [25]: 8.7% | Activity [26]: Non-Toxic | Activity (MV4-11 [27]): Active | Tmax [28]: 3.24 h | Cmax [29]: 681 ng/mL | bioavailability [30]: 11.9% | IC50 [31]: 0.13 nM | Tmax [32]: 1.8 min | CLz/F [33]: 29 mL/min/kg
